# Measured values from US20040005294A1, “IGFBP-3 in the diagnosis and treatment of cancer” (priority 2002, published 2004).
# Assays:
# NHBE cells = assay: MTT proliferation assay, NHBE cells (deguelin); type: cell-based, human; conditions: 10^−9 M to 10^−7 M
# Procedure: (§1) To measure the effects of deguelin on cell proliferation, NHBE, 1799, 1198, 1170-1, and HB56B cells were plated at concentrations of 2×10^3 to 4×10^3 cells/well in 96-well plates. The next day, cells were treated with either 0.1% DMSO as a diluent control or various concentrations of deguelin (final DMSO concentration=0.1%). At the end of the assay time period, cell proliferation was measured by the 3-(4,5-dimethylthiazol-2-yl)-2,5-diphenyltetrazolium bromide (MTT) assay as described (Lee et al., 2002). Six replicate wells were used for each analysis, and data from replicate wells are presented as means with 95% confidence intervals (CIs). For some experiments, the drug concentration required to inhibit cell growth by 50% (IC50) was determined by interpolation from dose-response curves. At least three independent experiments were performed.
# ERK1/2 in 1799 cells = assay: Immune complex kinase assay for ERK1/2; type: cell-based, human; conditions: 10^−7 M, 0-24 h, then 50 ng/mL IGF-I for 15 min
# Procedure: Approximately 5×10^6 1799 cells were treated with 10^−7 M deguelin or 0.1% DMSO for various time periods in the absence of any additional stimulatory growth factors. The cells were then treated with 50 ng/mL IGF-I for 15 minutes to activate MAPK. Total cell extracts were prepared in lysis buffer (Lonardo et al. 2002), and ERK-1/2 or c-Jun N-terminal kinase (JNK) were immunoprecipitated from 100 μg of each cell extract using antibodies (1 μg) that recognize ERK1/2 or JNK (Santa Cruz Biotechnology) and protein-A sepharose beads (20 μL) (Amersham Pharmacia Biotech). Kinase assays were performed by incubating the beads with 30 μL of kinase buffer to which 5 μCi of [γ^32P]ATP (2000 cpm/pmol) and 1 μg of substrate (myelin basic protein [MBP; Calbiochem, La Jolla, Calif.] or GST-cJun [Santa Cruz Biotechnology]) were added, as previously described (Lee et al., 2002). The samples were suspended in Laemmli buffer, boiled for 5 min, and then analyzed by SDS-polyacrylamide gel clectrophoresis. The gel was dried and autoradiographed. Total cell lysates from Jurkat cells (Upstate Biotechnology, Inc.) and H1299 NSCLC treated with 50 ng/mL IGF-I for 15 min were used as positive controls. Changes in the level of phosphorylation in MBP or GST-cJun reflect changes in Erk1/2 and JNK activity, respectively.
# [1] = system: PI3K/Akt pathway in 1799 cells; assay: Immunoblot of pAkt and pGSK-3β, 1799 cells; type: cell-based, human; conditions: 10^−7 M
# Procedure: Whole cell lysates from 1×10^6 cells were prepared in lysis buffer as described (Lonardo et al., 2002). Equivalent amounts of protein were resolved by sodium dodecyl sulfate (SDS)-polyacrylamide gels (7.5%-12%) and transferred to a nitrocellulose membrane. After the membrane was blocked in Tris-buffered saline (TBS) containing 0.05% Tween 20 (TBST) and 5% (w/v) nonfat powdered milk, the membrane was incubated with primary antibody at the appropriate dilution in TBS-5% nonfat milk at 4° C. for 16 h. The membrane was then washed multiple times with TBST and incubated with the appropriate horseradish peroxidaseconjugated secondary antibody for 1 h at room temperature. The protein-antibody complexes were detected by enhanced chemilurminescence (ECL kit; Amersham, Arlington Heights, Ill.), according to the manufacturer's recommended protocol. […]
# 1799 cells [2] = assay: Immunoblot of apoptosis-related enzymes and Bcl family members; type: cell-based, human; conditions: 3 days
# Procedure: Whole cell lysates from 1×10^6 cells were prepared in lysis buffer as described (Lonardo et al., 2002). Equivalent amounts of protein were resolved by sodium dodecyl sulfate (SDS)-polyacrylamide gels (7.5%-12%) and transferred to a nitrocellulose membrane. After the membrane was blocked in Tris-buffered saline (TBS) containing 0.05% Tween 20 (TBST) and 5% (w/v) nonfat powdered milk, the membrane was incubated with primary antibody at the appropriate dilution in TBS-5% nonfat milk at 4° C. for 16 h. The membrane was then washed multiple times with TBST and incubated with the appropriate horseradish peroxidaseconjugated secondary antibody for 1 h at room temperature. The protein-antibody complexes were detected by enhanced chemilurminescence (ECL kit; Amersham, Arlington Heights, Ill.), according to the manufacturer's recommended protocol.
# The following antibodies and working dilutions were used for the Western blots: rabbit polyclonal antibodies against human phosphorylated Akt (pAkt) (Ser473) (1:1000), Akt (1:1000), phosphorylated glycogen synthase kinase 3β (pGSK-3β) (Ser9) (1:1000), and mouse monoclonal antibody against human antiphosphorylated MAPK (anti-pMAPK) (Thr202/Tyr204) (1:500) (Cell Signaling Technology, Beverly, Mass.); rabbit polyclonal anti-GSK-3α/β (1:1000) (BD Transduction Laboratories, Lexington, Ky.); rabbit polyclonal anti-Bax and anti-caspase-3 antibodies (1:2000) (Pharmingen, San Diego, Calif.); rabbit polyclonal anti-Bcl-2 (1:1000) and rabbit polyclonal antipoly(ADP-ribose) polymerase (PARP) antibody (1:1000) (VIC5; Roche Molecular Biochemicals, Indianapolis, Ind.); rabbit polyclonal anti-hemagglutinin (HA) antibody (1:1000), goat polyclonal antibodies against extracellular related kinase 1(Erk-1; 1:1000), Erk-2 (1:1000), and β-actin (1:4000) (Santa Cruz Biotechnology, Inc., Santa Cruz, Calif.); rabbit anti-mouse immunoglobulin G (IgG)-horseradish peroxidase conjugate (1:2000) (DAKO, Carpinteria, Calif.); and donkey anti-rabbit IgG-horseradish peroxidase conjugate (1:2000) and rabbit anti-goat IgG-horseradish peroxidase conjugate (1:2000) (Amersham Pharmacia Biotech, Arlington Heights, Ill.).
# 1799 cells [3] = assay: MTT proliferation assay, 1799 cells; type: cell-based, human
# Procedure: as §1
# To determine whether deguelin-induced antiproliferative effects on premalignant HBE cells were mediated through the inhibition of the PI3K/Akt pathway, 2×10^5 1799 cells/well or 1×10 ^6 squamous HBE cells/well in six-well plates were infected with 5×10 ^3 particles/cell of a control virus (Ad5CMV) or with 1×10^3 or 5×10^3 particles/cell of Ad5CMV-MyrAkt-HA, an adenoviral vector that expresses a constitutively active Akt. (MyrAkt) in KSFM. After 1 day of infection, cells were treated with 10^−7M or 10^−6M deguelin, 2×10^−6 M or 4×10^−6M N-(4-hydroxyphenyl)retinamide (4-HPR), or 0.1% DMSO as a control and then incubated for 1 or 2 days. Apoptosis was analyzed using the APO-BrdU staining kit for TUNEL, Western blot analyses for caspase-3, and the cleavage of PARP.
# HB56B cells = assay: MTT proliferation assay, HB56B cells; type: cell-based, human; conditions: 10^−9 M to 10^−7 M, 1-3 days
# Procedure: as §1
# [4] = system: premalignant and malignant HBE cell lines; assay: MTT proliferation assay, premalignant and malignant HBE cell lines; type: cell-based; conditions: Homo sapiens, range tested 10^−9 M to 10^−7 M, read-out: IC50 (growth inhibition)
# Procedure: as §1
smiles,measurement,setting,value
"COc1cc2c(cc1OC)[C@@H]1C(=O)c3ccc4c(c3O[C@@H]1CO2)C=CC(C)(C)O4 [deguelin, Deguelin]",effect on growth of NHBE cells,NHBE cells,minimal effect
same,ERK1/2 activity,ERK1/2 in 1799 cells,no discernible effect
same,levels of pAkt and pGSK-3β,[1]; 0-24 h,time-dependent decrease in the levels of pAkt and pGSK-3β
same,pAkt level,[1]; by 14 h,virtually undetectable
same,caspase-3 activation,1799 cells [2]; 10^−8 M or 10^−7 M,activated caspase-3
same,Bax level,1799 cells [2],dose dependent increase in the level of Bax
same,Bcl-2 expression,1799 cells [2],slight decrease in Bcl-2 expression
same,Bcl-xL level,1799 cells [2],did not affect the level of Bcl-xL
same,reversibility of effects on cell growth,"1799 cells [3]; 10^−7 M for 1, 2 or 3 days, then 5 days without deguelin",irreversible
same,decrease in cell growth,"1799 cells [3]; 10^−7 M, 1 day",67.1%
same,effect on growth,"1799 cells [3]; 1799 cells infected with Ad5CMV-MyrAkt-HA, 10^−6 M",did not decrease the growth
same,decrease in growth relative to untreated control,"1799 cells [3]; 1799 cells uninfected or infected with 5×10^3 particles/cell Ad5CMV, 10^−7 M, 2 days",54%
same,activity at 0.1 µM,"1799 cells [3]; Homo sapiens, read-out: growth as percent of control cell growth",85%
same,effect on growth of HB56B cells,HB56B cells,Dose- and time-dependent growth-inhibitory effects
same,IC50,[4],< 10 nM
